What was measured:
Format in all cases: in vivo
Lolium multiflorum Lam. = test: Test Example 4: herbicidal effect by application to foliage (diluvial soil, plastic box); conditions: application to foliage, application herbicide amount 320 g/ha
Summary of the method: (§1)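 Seeds sown in sterilized diluvial soil, covered ~1.5 cm, grown 14 days in greenhouse at 25° C. to 30° C. Emulsion formulation diluted in water to set rate (g/ha) and sprayed onto stems and leaves. Effect scored visually 3 weeks later on 0–5 scale (5 = ≥90% herbicidal ratio, 0 = ≤5%).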

Alopecurus myosuroides = test: as above; conditions: application to foliage, application herbicide amount 320 g/ha
Summary of the method: as §1

Chenopodium album = test: as above; conditions: application to foliage, application herbicide amount 320 g/ha
Summary of the method: as §1

Veronica persica = test: as above; conditions: application to foliage, application herbicide amount 320 g/ha
Summary of the method: as §1

Setaria viridis = test: as above; conditions: application to foliage, application herbicide amount 320 g/ha
Summary of the method: as §1

[1] = tested on: Echinochloa crus-galli var. crus-galli; test: as above; conditions: application to foliage, application herbicide amount 320 g/ha
Summary of the method: as §1

Apera spica-venti. = test: as above; conditions: application to foliage, application herbicide amount 320 g/ha
Summary of the method: as §1

Abutilon theophrasti = test: as above; conditions: application to foliage, application herbicide amount 320 g/ha
Summary of the method: as §1

Avena fatua = test: as above; conditions: application to foliage, application herbicide amount 320 g/ha
Summary of the method: as §1

Scirpus juncoides = test: Test Example 2: herbicidal activity, application during weed generation in submerged conditions; conditions: Eighteenth Table; application herbicide amount 320 g/ha
Summary of the method: (§2)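 Scored three weeks post-application on a 0–5 scale (5: ≥90% herbicidal ratio, almost withered; 0: ≤5%). Plants raised from mixed-sown seed in submerged alluvial soil (4 cm water), 25–30 °C greenhouse; water-diluted emulsion applied onto water surface at one- to two-leaf stage, dose in g/ha.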

[2] = tested on: Echinochloa oryzacola Vasing.; test: as above; conditions: Eighteenth Table; application herbicide amount 320 g/ha
Summary of the method: as §2

Monochoria vaginalis = test: as above; conditions: Eighteenth Table; application herbicide amount 320 g/ha
Summary of the method: as §2

[3] = tested on: directly sowed Oryza sativa; test: Test Example 4: effect on crop by application to foliage (diluvial soil, plastic box); conditions: application to foliage, application herbicide amount 320 g/ha
Summary of the method: as §1

[4] = tested on: Beta vulgaris ssp. vulgaris; test: as above; conditions: application to foliage, application herbicide amount 320 g/ha
Summary of the method: as §1

Glycine max = test: as above; conditions: application to foliage, application herbicide amount 320 g/ha
Summary of the method: as §1

Brassica campestris L. = test: as above; conditions: application to foliage, application herbicide amount 320 g/ha
Summary of the method: as §1

Zea mays = test: as above; conditions: application to foliage, application herbicide amount 320 g/ha
Summary of the method: as §1

Triticum aestivum = test: as above; conditions: application to foliage, application herbicide amount 320 g/ha
Summary of the method: as §1

Row | Structure (SMILES) | K (Lolium multiflorum Lam.) herbicidal effect (Lolium multiflorum Lam.) | J (Alopecurus myosuroides) herbicidal effect (Alopecurus myosuroides) | O (Chenopodium album) herbicidal effect (Chenopodium album) | R (Veronica persica) herbicidal effect (Veronica persica) | G (Setaria viridis) herbicidal effect (Setaria viridis) | H (Echinochloa crus-galli var. crus-galli) herbicidal effect [1] | L (Apera spica-venti.) herbicidal effect (Apera spica-venti.) | M (Abutilon theophrasti) herbicidal effect (Abutilon theophrasti) | I (Avena fatua) herbicidal effect (Avena fatua) | B (Scirpus juncoides) herbicidal ratio grade (Scirpus juncoides) | A (Echinochloa oryzicola Vasing.) herbicidal ratio grade [2] | C (Monochoria vaginalis) herbicidal ratio grade (Monochoria vaginalis) | d (directly sowed Oryza sativa) effect on crop [3] | f (Beta vulgaris ssp. vulgaris) effect on crop [4] | c (Glycine max) effect on crop (Glycine max) | g (Brassica campestris L.) effect on crop (Brassica campestris L.) | b (Zea mays) effect on crop (Zea mays) | e (Triticum aestivum) effect on crop (Triticum aestivum)
1 | CC[S+]([O-])c1nnc2c(C(=O)Nc3nnc(C)o3)ccc(C(F)(F)F)n12 (stereo not drawn) [1-034] | 3 (Herbicidal ratio of 40% or more and less than 70%) | 1 (Herbicidal ratio of 5% or more and less than 20%) | 5 (Herbicidal ratio of 90% or more (almost completely withered)) | 5 (Herbicidal ratio of 90% or more (almost completely withered)) | 5 (Herbicidal ratio of 90% or more (almost completely withered)) | 5 (Herbicidal ratio of 90% or more (almost completely withered)) | 3 (Herbicidal ratio of 40% or more and less than 70%) | 5 (Herbicidal ratio of 90% or more (almost completely withered)) | 3 (Herbicidal ratio of 40% or more and less than 70%) | 3 (Herbicidal ratio of 40% or more and less than 70%) | 4 (Herbicidal ratio of 70% or more and less than 90%) | 4 (Herbicidal ratio of 70% or more and less than 90%) | 4 (Herbicidal ratio of 70% or more and less than 90%) | 5 (Herbicidal ratio of 90% or more (almost completely withered)) | 1 (Herbicidal ratio of 5% or more and less than 20%) | 4 (Herbicidal ratio of 70% or more and less than 90%) | 5 (Herbicidal ratio of 90% or more (almost completely withered)) | 2 (Herbicidal ratio of 20% or more and less than 40%)
2 | Cc1nnc(NC(=O)c2ccc(C(F)(F)F)n3c([S+]([O-])C(C)C)nnc23)o1 (stereo not drawn) [1-035] | 2 (Herbicidal ratio of 20% or more and less than 40%) | 2 (Herbicidal ratio of 20% or more and less than 40%) | 5 (Herbicidal ratio of 90% or more (almost completely withered)) | 5 (Herbicidal ratio of 90% or more (almost completely withered)) | 5 (Herbicidal ratio of 90% or more (almost completely withered)) | 5 (Herbicidal ratio of 90% or more (almost completely withered)) | 3 (Herbicidal ratio of 40% or more and less than 70%) | 5 (Herbicidal ratio of 90% or more (almost completely withered)) | 2 (Herbicidal ratio of 20% or more and less than 40%) | 4 (Herbicidal ratio of 70% or more and less than 90%) | 5 (Herbicidal ratio of 90% or more (almost completely withered)) | 4 (Herbicidal ratio of 70% or more and less than 90%) | 4 (Herbicidal ratio of 70% or more and less than 90%) | 5 (Herbicidal ratio of 90% or more (almost completely withered)) | 3 (Herbicidal ratio of 40% or more and less than 70%) | 3 (Herbicidal ratio of 40% or more and less than 70%) | 4 (Herbicidal ratio of 70% or more and less than 90%) | 2 (Herbicidal ratio of 20% or more and less than 40%)
3 | Cc1nnc(NC(=O)c2ccc(C(F)(F)F)n3c(C[S+](C)[O-])nnc23)o1 (stereo not drawn) [1-036] | 3 (Herbicidal ratio of 40% or more and less than 70%) | 3 (Herbicidal ratio of 40% or more and less than 70%) | 5 (Herbicidal ratio of 90% or more (almost completely withered)) | 5 (Herbicidal ratio of 90% or more (almost completely withered)) | 5 (Herbicidal ratio of 90% or more (almost completely withered)) | 5 (Herbicidal ratio of 90% or more (almost completely withered)) | 4 (Herbicidal ratio of 70% or more and less than 90%) | 5 (Herbicidal ratio of 90% or more (almost completely withered)) | 4 (Herbicidal ratio of 70% or more and less than 90%) | 2 (Herbicidal ratio of 20% or more and less than 40%) | 3 (Herbicidal ratio of 40% or more and less than 70%) | 4 (Herbicidal ratio of 70% or more and less than 90%) | 4 (Herbicidal ratio of 70% or more and less than 90%) | 5 (Herbicidal ratio of 90% or more (almost completely withered)) | 3 (Herbicidal ratio of 40% or more and less than 70%) | 5 (Herbicidal ratio of 90% or more (almost completely withered)) | 3 (Herbicidal ratio of 40% or more and less than 70%) | 3 (Herbicidal ratio of 40% or more and less than 70%)
4 | Cc1nnc(NC(=O)c2ccc(C(F)(F)F)n3c(C[S+]([O-])CC(F)(F)F)nnc23)o1 (stereo not drawn) [1-038] | 1 (Herbicidal ratio of 5% or more and less than 20%) | 1 (Herbicidal ratio of 5% or more and less than 20%) | 5 (Herbicidal ratio of 90% or more (almost completely withered)) | 5 (Herbicidal ratio of 90% or more (almost completely withered)) | 5 (Herbicidal ratio of 90% or more (almost completely withered)) | 5 (Herbicidal ratio of 90% or more (almost completely withered)) | 2 (Herbicidal ratio of 20% or more and less than 40%) | 5 (Herbicidal ratio of 90% or more (almost completely withered)) | 3 (Herbicidal ratio of 40% or more and less than 70%) | 1 (Herbicidal ratio of 5% or more and less than 20%) | 1 (Herbicidal ratio of 5% or more and less than 20%) | 0 (Herbicidal ratio of 5% or less (almost no effect)) | 4 (Herbicidal ratio of 70% or more and less than 90%) | 5 (Herbicidal ratio of 90% or more (almost completely withered)) | 0 (Herbicidal ratio of 5% or less (almost no effect)) | 4 (Herbicidal ratio of 70% or more and less than 90%) | 0 (Herbicidal ratio of 5% or less (almost no effect)) | 1 (Herbicidal ratio of 5% or more and less than 20%)
5 | CCOC(=O)Cc1nnc2c(C(=O)Nc3nnc(C)o3)ccc(C(F)(F)F)n12 [1-042] | 0 (Herbicidal ratio of 5% or less (almost no effect)) | 0 (Herbicidal ratio of 5% or less (almost no effect)) | 5 (Herbicidal ratio of 90% or more (almost completely withered)) | 4 (Herbicidal ratio of 70% or more and less than 90%) | 3 (Herbicidal ratio of 40% or more and less than 70%) | 5 (Herbicidal ratio of 90% or more (almost completely withered)) | 2 (Herbicidal ratio of 20% or more and less than 40%) | 4 (Herbicidal ratio of 70% or more and less than 90%) | 2 (Herbicidal ratio of 20% or more and less than 40%) | 2 (Herbicidal ratio of 20% or more and less than 40%) | 1 (Herbicidal ratio of 5% or more and less than 20%) | 3 (Herbicidal ratio of 40% or more and less than 70%) | 3 (Herbicidal ratio of 40% or more and less than 70%) | 5 (Herbicidal ratio of 90% or more (almost completely withered)) | 1 (Herbicidal ratio of 5% or more and less than 20%) | 3 (Herbicidal ratio of 40% or more and less than 70%) | 0 (Herbicidal ratio of 5% or less (almost no effect)) | 0 (Herbicidal ratio of 5% or less (almost no effect))

Source: patent US9708314B2, “Heterocyclic amide compound” (NISSAN CHEMICAL INDUSTRIES, LTD., priority 2013, dated 2017)
